“And” between values parts separate entries of the source, which are not always exact repeats. Equal values may be shown once.
Columns and labels:
FP S33A = target: T1, FP S33A (Homo sapiens, UniProt P43088, S33A); assay: IP-One accumulation assay, FP S33A mutant; assay type: cell-based; conditions: S33 to alanine vs WT FP
T1 construct: Flag; expressed in transfected cells; host or cells: AD293 cells
Method: (§1) IP-One production was measured using the IP-One HTRF kit (Cisbio)[50]. Briefly, AD293 cells (Agilent) were grown to a density of 400,000–500,000 cells per mL and then […] with separate plasmids at a suitable concentration. The culture was collected by centrifugation 24 h after incubation at 37 °C in 5% CO2 with a Stimulation Buffer. The cell suspension was then dispensed in a white 384-well plate at a volume of 7 μl per well before adding 7 μl of ligands. The mixture was incubated for 1 h at 37 °C. IP-One-d2 and anti-IP-One Cryptate dissolved in Lysis Buffer (3 μl each) were subsequently added and incubated for 15-30 min at room temperature before measurement. Intracellular IP-One measurement was carried out with the IP-One HTRF kit and EnVision multi-plate reader (PerkinElmer) according to the manufacturer’s instructions. Data were normalized to the baseline response of the ligand. pEC50 Emin, and Emax for each curve were calculated by GraphPad Prism 8.0. ∆pEC50 equals pEC50 of agonists to specific Mutant minus pEC50 of agonists to WT. Data are presented as mean values ± SEM; n = 3 independent samples; n.s. no significant; *p < 0.05; **p < 0.01; ***p < 0.001.

FP Y92A = target: T2, FP Y92A (Homo sapiens, UniProt P43088, Y92A); assay: IP-One accumulation assay, FP Y92A mutant; assay type: cell-based; conditions: Y92 mutant (alanine) vs WT FP
T2 construct: Flag; expressed in transfected cells; host or cells: AD293 cells
Method: as §1

FP M115A = target: T3, FP M115A (Homo sapiens, UniProt P43088, M115A); assay: IP-One accumulation assay, FP M115A mutant; assay type: cell-based; conditions: M115 to alanine vs WT FP
T3 construct: Flag; expressed in transfected cells; host or cells: AD293 cells
Method: as §1

FP S118A = target: T4, FP S118A (Homo sapiens, UniProt P43088, S118A); assay: IP-One accumulation assay, FP S118A mutant; assay type: cell-based
T4 construct: Flag; expressed in transfected cells; host or cells: AD293 cells
Method: as §1

FP T184A = target: T5, FP T184A (Homo sapiens, UniProt P43088, T184A); assay: IP-One accumulation assay, FP T184A mutant; assay type: cell-based; conditions: T184 mutant (alanine) vs WT FP
T5 construct: Flag; expressed in transfected cells; host or cells: AD293 cells
Method: as §1

FP W185A = target: T6, FP W185A (Homo sapiens, UniProt P43088, W185A); assay: IP-One accumulation assay, FP W185A mutant; assay type: cell-based; conditions: W185A mutant vs WT FP; IP1 accumulation, AD293 cells; single values of n = 3 independent samples
T6 construct: Flag; expressed in transfected cells; host or cells: AD293 cells
Method: as §1

FP F205A = target: T7, FP F205A (Homo sapiens, UniProt P43088, F205A); assay: IP-One accumulation assay, FP F205A mutant; assay type: cell-based; conditions: F205A mutant vs WT FP; IP1 accumulation, AD293 cells; single values of n = 3 independent samples
T7 construct: Flag; expressed in transfected cells; host or cells: AD293 cells
Method: as §1

FP F265A = target: T8, FP F265A (Homo sapiens, UniProt P43088, F265A); assay: IP-One accumulation assay, FP F265A mutant; assay type: cell-based; conditions: F265A mutant vs WT FP; IP1 accumulation, AD293 cells; single values of n = 3 independent samples
T8 construct: Flag; expressed in transfected cells; host or cells: AD293 cells
Method: as §1

FP I290A = target: T9, FP I290A (Homo sapiens, UniProt P43088, L290A); assay: IP-One accumulation assay, FP I290A mutant; assay type: cell-based; conditions: I290A mutant vs WT FP; IP1 accumulation, AD293 cells; single values of n = 3 independent samples
T9 construct: Flag; expressed in transfected cells; host or cells: AD293 cells
Method: as §1

FP R291A = target: T10, FP R291A (Homo sapiens, UniProt P43088, R291A); assay: IP-One accumulation assay, FP R291A mutant; assay type: cell-based; conditions: R291 mutant (alanine) vs WT FP
T10 construct: Flag; expressed in transfected cells; host or cells: AD293 cells
Method: as §1

FP T294A = target: T11, FP T294A (Homo sapiens, UniProt P43088, T294A); assay: IP-One accumulation assay, FP T294A mutant; assay type: cell-based
T11 construct: Flag; expressed in transfected cells; host or cells: AD293 cells
Method: as §1

FP Q297A = target: T12, FP Q297A (Homo sapiens, UniProt P43088, Q297A); assay: IP-One accumulation assay, FP Q297A mutant; assay type: cell-based; conditions: Q297A mutant vs WT FP; IP1 accumulation, AD293 cells; single values of n = 3 independent samples
T12 construct: Flag; expressed in transfected cells; host or cells: AD293 cells
Method: as §1

FP I298A = target: T13, FP I298A (Homo sapiens, UniProt P43088, I298A); assay: IP-One accumulation assay, FP I298A mutant; assay type: cell-based; conditions: I298A mutant vs WT FP; IP1 accumulation, AD293 cells; single values of n = 3 independent samples
T13 construct: Flag; expressed in transfected cells; host or cells: AD293 cells
Method: as §1

FP S118F = target: T14, FP S118F (Homo sapiens, UniProt P43088, S118F); assay: IP-One accumulation assay, FP S118F mutant; assay type: cell-based; conditions: S118F mutant vs WT FP; IP1 accumulation, AD293 cells; single values of n = 3 independent samples
T14 construct: Flag; expressed in transfected cells; host or cells: AD293 cells
Method: as §1

FP S118N = target: T15, FP S118N (Homo sapiens, UniProt P43088, S118N); assay: IP-One accumulation assay, FP S118N mutant; assay type: cell-based
T15 construct: Flag; expressed in transfected cells; host or cells: AD293 cells
Method: as §1

FP = tested on: FP; design: method as in PMID 10785618; conditions: cited from earlier work
EP1 = tested on: EP1; design: method as in PMID 10785618; conditions: cited from earlier work
EP3 = tested on: EP3; design: method as in PMID 10785618; conditions: cited from earlier work

T11 sequence (P43088 whole entry T294A): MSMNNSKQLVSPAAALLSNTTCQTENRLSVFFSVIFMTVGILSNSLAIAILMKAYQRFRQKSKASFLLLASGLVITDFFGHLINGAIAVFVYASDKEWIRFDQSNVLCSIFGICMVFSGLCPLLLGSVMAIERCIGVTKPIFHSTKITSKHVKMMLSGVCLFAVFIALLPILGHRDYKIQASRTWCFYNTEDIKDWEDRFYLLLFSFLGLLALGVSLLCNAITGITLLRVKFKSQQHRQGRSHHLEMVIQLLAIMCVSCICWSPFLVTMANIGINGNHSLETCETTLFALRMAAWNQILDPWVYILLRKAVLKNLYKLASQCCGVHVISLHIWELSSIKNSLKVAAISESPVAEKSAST
T7 sequence (P43088 whole entry F205A): as the sequence (P43088 whole entry T294A) above, with F205A, A294T counted along it
T9 sequence (P43088 whole entry L290A): as the sequence (P43088 whole entry T294A) above, with L290A, A294T counted along it
T15 sequence (P43088 whole entry S118N): as the sequence (P43088 whole entry T294A) above, with S118N, A294T counted along it
T4 sequence (P43088 whole entry S118A): as the sequence (P43088 whole entry T294A) above, with S118A, A294T counted along it
T14 sequence (P43088 whole entry S118F): as the sequence (P43088 whole entry T294A) above, with S118F, A294T counted along it
T12 sequence (P43088 whole entry Q297A): as the sequence (P43088 whole entry T294A) above, with A294T, Q297A counted along it
T6 sequence (P43088 whole entry W185A): as the sequence (P43088 whole entry T294A) above, with W185A, A294T counted along it
T13 sequence (P43088 whole entry I298A): as the sequence (P43088 whole entry T294A) above, with A294T, I298A counted along it
T8 sequence (P43088 whole entry F265A): as the sequence (P43088 whole entry T294A) above, with F265A, A294T counted along it
T10 sequence (P43088 whole entry R291A): as the sequence (P43088 whole entry T294A) above, with R291A, A294T counted along it
T5 sequence (P43088 whole entry T184A): as the sequence (P43088 whole entry T294A) above, with T184A, A294T counted along it
T1 sequence (P43088 whole entry S33A): as the sequence (P43088 whole entry T294A) above, with S33A, A294T counted along it
T2 sequence (P43088 whole entry Y92A): as the sequence (P43088 whole entry T294A) above, with Y92A, A294T counted along it
T3 sequence (P43088 whole entry M115A): as the sequence (P43088 whole entry T294A) above, with M115A, A294T counted along it

- effect of mutation on agonist affinity / potency (in words) (FP S33A): significantly decreased the potency
- effect of mutation on agonist activity / potency (in words) (FP Y92A): significantly decreased the potency
- effect of mutation on agonist potency (in words) (FP M115A): significantly decreased the potency
- ∆pEC50 (pEC50 of agonist to mutant minus pEC50 to WT) (FP S118A; S118A mutant vs WT FP, IP1 accumulation, AD293 cells, single values of n = 3 independent samples): -1.0 and -0.9
- effect of mutation on agonist potency (in words) (FP S118A; S118 to alanine vs WT FP): significantly reduced the potency
- effect of mutation on agonist activity / potency (in words) (FP T184A): significantly decreased the potency
- ∆pEC50 (pEC50 of agonist to mutant minus pEC50 to WT) (FP W185A): -2.9 and -2.7
- ∆pEC50 (pEC50 of agonist to mutant minus pEC50 to WT) (FP F205A): -2.3 and -2.1 and -2.2
- ∆pEC50 (pEC50 of agonist to mutant minus pEC50 to WT) (FP F265A): -2.5 and -2.2
- ∆pEC50 (pEC50 of agonist to mutant minus pEC50 to WT) (FP I290A): -1.1 and -1.3 and -1.0
- effect of mutation on agonist activity / potency (in words) (FP R291A): significantly decreased the potency
- ∆pEC50 (pEC50 of agonist to mutant minus pEC50 to WT) (FP T294A; T294A mutant vs WT FP, IP1 accumulation, AD293 cells, single values of n = 3 independent samples): -2.0 and -1.8 and -1.9
- effect of mutation on agonist affinity / potency (in words) (FP T294A; T294 to alanine vs WT FP): significantly decreased the potency
- ∆pEC50 (pEC50 of agonist to mutant minus pEC50 to WT) (FP Q297A): -1.5 and -1.4
- ∆pEC50 (pEC50 of agonist to mutant minus pEC50 to WT) (FP I298A): -1.8 and -2.1
- ∆pEC50 (pEC50 of agonist to mutant minus pEC50 to WT) (FP S118F): -1.0 and -0.9 and -0.8
- ∆pEC50 (pEC50 of agonist to mutant minus pEC50 to WT) (FP S118N; S118N mutant vs WT FP, IP1 accumulation, AD293 cells, single values of n = 3 independent samples): -1.0 and -1.1 and -1.2
- effect of mutation on agonist potency (in words) (FP S118N; S118 to asparagine vs WT FP): significantly reduced the potency
Compound: O=C(O)CCC/C=C\C[C@@H]1[C@@H](CC[C@@H](O)CCc2ccccc2)[C@H](O)C[C@@H]1O [LTPA, Latanoprost acid]
- selectivity enhancement compared to PGF2α (FP; FP versus EP1 and EP3): more than 100 times
- EC50 (FP; FP): 0.0036 µM
- EC50 (EP1): 6.9 µM
- EC50 (EP3): 17 µM
